Like-named read-outs stand apart in the source and are kept apart here.

Data set [1] addresses T1, mouse PDE4B3 dimer S133D(PKA) (Mus musculus, UniProt Q8VBU5, S118D).
T1 construct: hexahistidine; Proteos Inc; host or cells: Baculovirus-infected Sf9 insect cells
T1 sequence (Q8VBU5 1-721 S118D): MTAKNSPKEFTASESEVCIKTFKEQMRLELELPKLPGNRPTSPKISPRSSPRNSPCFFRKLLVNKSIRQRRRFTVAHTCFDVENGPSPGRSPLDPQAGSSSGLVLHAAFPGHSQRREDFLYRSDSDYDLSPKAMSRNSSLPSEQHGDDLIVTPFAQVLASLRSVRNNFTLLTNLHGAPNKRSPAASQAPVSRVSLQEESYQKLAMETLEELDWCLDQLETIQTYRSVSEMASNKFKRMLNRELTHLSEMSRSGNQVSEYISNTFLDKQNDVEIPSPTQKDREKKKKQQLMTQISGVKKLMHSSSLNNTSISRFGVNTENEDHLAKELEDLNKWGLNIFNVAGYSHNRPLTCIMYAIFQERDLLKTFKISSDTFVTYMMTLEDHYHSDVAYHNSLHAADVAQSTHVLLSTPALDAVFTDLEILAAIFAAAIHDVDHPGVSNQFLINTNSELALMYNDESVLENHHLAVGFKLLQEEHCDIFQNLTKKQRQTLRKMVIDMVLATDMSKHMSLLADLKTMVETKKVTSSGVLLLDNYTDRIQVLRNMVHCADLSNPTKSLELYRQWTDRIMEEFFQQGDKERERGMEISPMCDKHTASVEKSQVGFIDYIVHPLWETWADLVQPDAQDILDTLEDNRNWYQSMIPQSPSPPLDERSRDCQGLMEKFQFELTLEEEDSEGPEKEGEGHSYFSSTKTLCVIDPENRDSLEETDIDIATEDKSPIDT
Kind of data set: PDE4 kinetic cAMP hydrolysis coupled-enzyme assay. The format is biochemical.
Procedure: Kinetic assay of cAMP hydrolysis by purified PDE4 enzymes is measured by coupling the formation of the PDE4 reaction product 5′-adenosine monophosphate (AMP) to the oxidation of reduced nicotinamide adenine dinucleotide (NADH). This is accomplished with three coupling enzymes (yeast myokinase, pyruvate kinase, and lactate dehydrogenase), and allows fluorescent determination of reaction rates [19]. To measure inhibition of PDE4 enzymes by test compounds, data were percent normalized relative to controls and are presented as percent inhibition.
Kinetic assay of cAMP hydrolysis by purified PDE4 enzymes is measured by coupling the formation of the PDE4 reaction product 5′-adenosine monophosphate (AMP) to the oxidation of reduced nicotinamide adenine dinucleotide (NADH). This is accomplished with three coupling enzymes (yeast myokinase, pyruvate kinase, and lactate dehydrogenase), and allows fluorescent determination of reaction rates.^19 Assays were performed in 96-well plates in a total volume of 200 μl/well. Compounds were dissolved in dimethylsulfoxide (DMSO) and added to plates in a volume of 10 μl followed by addition of 165 μl of assay mix. Plates were pre-incubated at 25 °C for 10 min. The enzyme reaction was initiated by the addition of 25 μl of cAMP followed by thorough mixing. […] Initial rates (slopes) were determined from linear portions of the progress curves. […]

Data set [2] deals with PDE4 binding sites in humanized PDE4D mouse brain membranes. Put plainly: [3H]-rolipram radioligand binding to brain membranes.
Procedure: Mice were killed by decapitation, and the brains were immediately dissected on ice and homogenized in binding buffer using a Polytron homogenizer (Brinkman Instruments, Westbury, NY). The membrane fraction of the homogenate was obtained by centrifugation at 15,000 × g for 15 min, and resuspension of the pellet in the binding buffer.
Mice were killed by decapitation, and the brains were immediately dissected on ice and homogenized in binding buffer (50 mM Tris-HCl, 5 mM MgCl2, pH 7.5) using a Polytron homogenizer (Brinkman Instruments, Westbury, NY). The membrane fraction of the homogenate was obtained by centrifugation at 15,000 g for 15 min, and resuspension of the pellet in the binding buffer^29.
At the end of the incubation, reactions were stopped by adding 5 ml of the ice-cold binding buffer and rapid vacuum filtration through glass fiber filters that had been soaked in 0.3% polyethyleneimine. The filters were then washed twice with 5 ml of the ice-cold binding buffer, and discs of filter paper were collected for measurement of radioactivity by liquid scintillation counting.
Data set [3] relates to humanized PDE4D mice. Put plainly: Novel object recognition, 24 h inter-trial interval. The format is in vivo, mouse.
Procedure: The novel object recognition test was performed as described elsewhere [32, 33]. Briefly, the task procedure consists of three phases: habituation phase on day 1 for 10 min, training (T1) phase on day 2 for 5 min, and testing (T2) phase on day 3 for 5 min. The duration each animal spent exploring the objects was recorded. Time spent exploring the identical objects in T1 was recorded as a1 and a2; time spent exploring the familiar and the novel objects in T2 was recorded as “a” and “b”, respectively. The following variables were calculated: e1 = a1 + a2, e2 = a + b, the relative discrimination index d2 = (b–a)/e2.
Novel object recognition. Mice were handled for 3-5 min for 5 days in a row. The novel object recognition test was performed in a Plexiglas open field box (L30 cm, W50 cm, H40 cm) as described elsewhere^64,65. Briefly, the task procedure consists of three phases: habituation, training (T1), and testing (T2). In the habituation phase (day 1), each animal is allowed to freely explore the apparatus for 10 min; then the animal is returned to its home cage. During the training phase (day 2), a single animal is placed in the center of the open field containing two identical objects located on the diagonal of the field, and allowed to explore for 5 min. After a retention interval after T1 of 24 h (long-term recall) or 1 h (scopolamine-impairment model), the animal was subjected to the T2 testing phase for 5 min, during which one familiar object and one novel object were presented. The arena and objects were thoroughly wiped with 70% ethanol after each trial to avoid the presence of any olfactory cues. The animals were considered to be exploring the object when directing their nose to the object at a distance of no more than 2 cm and/or touching or sniffing the object. The duration each animal spent exploring the objects was recorded. Time spent exploring the identical objects in T1 was recorded as a1 and a2; time spent exploring the familiar and the novel objects in T2 was recorded as ‘a’ and ‘b’, respectively. The following variables were calculated: e1 = a1 + a2, e2 = a + b, the relative discrimination index d2 = (b – a)/e2.
Data set [4] relates to humanized PDE4D mice. Put plainly: Scopolamine-induced memory impairment in novel object recognition, 1 h inter-trial interval. The data set is classed as in vivo, mouse. How it is done:
The novel object recognition test was performed as described elsewhere. […] The duration each animal spent exploring the objects was recorded. Time spent exploring the identical objects in T1 was recorded as a1 and a2; time spent exploring the familiar and the novel objects in T2 was recorded as “a” and “b”, respectively. The following variables were calculated: e1 = a1 + a2, e2 = a + b, the relative discrimination index d2 = (b–a)/e2.
For the scopolamine-induced memory impairment models, a single dose of scopolamine (0.1 mg/kg, IP) was administered 30 min before the training session of the NOR. Animals treated with H-89 or vehicle were implanted with 26-gauge guide cannula unilaterally (AP −0.2 mm from Bregma, ML +1 mm from the midline, DV−2mm from skull surface) and rested for a week before any tests.
Novel object recognition. Mice were handled for 3-5 min for 5 days in a row. The novel object recognition test was performed in a Plexiglas open field box (L30 cm, W50 cm, H40 cm) as described elsewhere^64,65. Briefly, the task procedure consists of three phases: habituation, training (T1), and testing (T2). In the habituation phase (day 1), each animal is allowed to freely explore the apparatus for 10 min; then the animal is returned to its home cage. During the training phase (day 2), a single animal is placed in the center of the open field containing two identical objects located on the diagonal of the field, and allowed to explore for 5 min. After a retention interval after T1 of 24 h (long-term recall) or 1 h (scopolamine-impairment model), the animal was subjected to the T2 testing phase for 5 min, during which one familiar object and one novel object were presented. […] The duration each animal spent exploring the objects was recorded. Time spent exploring the identical objects in T1 was recorded as a1 and a2; time spent exploring the familiar and the novel objects in T2 was recorded as ‘a’ and ‘b’, respectively. The following variables were calculated: e1 = a1 + a2, e2 = a + b, the relative discrimination index d2 = (b – a)/e2.

The test system of data set [5] is ICR mice. Kind of data set: Antidepressant-like effect models (tail suspension, forced swim). The data set is classed as in vivo, mouse. The following applies: Supplementary Figure S3. An excerpt:
Data are presented as mean ± S.E.M. (n = 10 male mice); * p < 0.05 and ** p < 0.01 (Student’s t-test) versus vehicle-treated group.

The subject of data set [6] is ICR mice. Put plainly: Anxiolytic-like effect models (marble burying, elevated-plus maze). The data set is classed as in vivo, mouse. Particulars: Supplementary Figure S4. The text has this: Data are presented as mean ± S.E.M. (n = 10 male mice); * p < 0.05 and *** p < 0.001 (Student’s t-test) versus vehicle-treated group.
Data set [7] concerns pCREB, BDNF, pSynapsin, PSD95 in humanized PDE4D mice. Kind of data set: Immunoblot of hippocampal plasticity-related proteins. The data set is classed as in vivo, mouse. Here is the method: Hippocampal tissues were treated with lysis buffer for protein extraction. Then, 10–30 μg protein was separated using gel electrophoresis and transferred to polyvinylidene difluoride membranes, blocked with blocking buffer, and incubated with primary antibodies overnight at 4 °C. Labeled protein bands were detected using the enhanced chemiluminescence method and quantified using Quantity One 1-D Analysis Software.
Hippocampal tissues were lysed with RIPA buffer containing protease and phosphatase inhibitors and centrifuged at 13,000 rpm for 30 min at 4 °C. Aliquots of supernatant containing 10-30 μg protein were separated using 10% SDS-PAGE as described previously^66. Proteins from the gels were transferred to polyvinylidene difluoride membranes, blocked with blocking buffer (phosphate buffered saline containing 3% BSA and 0.1% sodium azide), and incubated with primary antibodies overnight at 4°C (phospho-CREB at Ser 133 (# ab32096, diluted 1:1000, abcam, Cambridge, MA), CREB (# sc-186, diluted 1:200, Santa Cruz Biotechnology, Dallas, Texas), β -actin (Catalog # ab8227, diluted 1:2000, abcam, Cambridge, MA)), Synapsin (#2312, diluted 1:1000, Cell Signaling Technology), Phospho-synapsin (#2311, diluted […], Cell Signaling Technology ), and PSD-95 (#2507, diluted 1:1000, Cell Signaling Technology, Danvers, MA). Labeled protein bands were detected using the enhanced chemiluminescence (ECL) method and quantified using Quantity One 1-D Analysis Software.
(A western blot detects proteins with antibodies after separation by electrophoresis.)

Data set [8] concerns humanized PDE4D mice.
[9] abbreviates: repeated oral dosing 14 days, hPDE4D mice.

In turn, `O=C(O)Cc1ccc(Cc2cc(-c3cccc(Cl)c3)nc(C(F)(F)F)c2)cc1` [BPN14770] gave an IC50 in data set [1] of 2120 ± 527 nM. The Ki in data set [2] (hPDE4D, inhibition of [3H]-rolipram binding, read-out: Two-site Ki1) was 2.8 ± 1.08 nM. For the same compound, the Ki in data set [2] (hPDE4D, inhibition of [3H]-rolipram binding, read-out: Two-site Ki2) was determined as 186 ± 19 nM. In data set [2] (read-out: One-site Ki), the Ki came to 82.1 ± 6.03 nM. Further, the “dose range for effect on neurochemical and cognitive biomarkers” value in the data set with humanized PDE4D mice [3] (humanized PDE4D mice) was 0.01–0.03 mg/kg PO. Moreover, in the data set with humanized PDE4D mice [3] (memory tests overall), the “greater potency for improving memory in humanized vs wild-type mice” value was 100 fold. Besides, the “MED for reversal of scopolamine memory deficit” value with humanized PDE4D mice [4] (acute administration 30 min prior to scopolamine, NOR 1 h inter-trial interval) turned out to be 0.03 mg/kg. In addition, the “memory benefit in the scopolamine impairment model with repeated dosing” value in the data set with humanized PDE4D mice [4] (repeated treatment for 14 days) is “maintained with repeated dosing”. The antidepressant-like effect result with ICR mice [5] is recorded as “ineffective”. Also, the anxiolytic-like effect entry with ICR mice [6] is on record as “ineffective”. For the same compound, the “hippocampal CREB phosphorylation or BDNF expression after single acute dose” value in data set [7] (1 h after dosing, data not shown) is on record as “no change”. Besides, in data set [7] (hPDE4D mice, repeated dosing, data not shown), the “synapsin phosphorylation in prefrontal cortex and cortex” value was “increased phosphorylation of synapsin was also observed”. For the same compound, in data set [7] (repeated dosing, 0.03 mg/kg), the “increase in hippocampal PSD95” value was 1.4 fold and the “increase in hippocampal phosphorylation of synapsin” value is on record as 1.5 fold. Also, in data set [7] (setting [9]), the “elevation of hippocampal BDNF” value is 2.1 fold and the “elevation of hippocampal CREB phosphorylation” value amounted to 2.3 fold. Besides, the “projected tolerability in non-rodent species, plasma” value with humanized PDE4D mice [8] (from surrogate measure of emesis) is recorded as “greater than 1300 ng/ml”. Further, the “window in exposure between beneficial doses and plasma exposure predicted to cause emesis” value in the data set with humanized PDE4D mice [8] (humanized PDE4D mice) is recorded as 40- to 100 fold. Moreover, in the data set on humanized PDE4D mice [8] (mouse, in vivo), the “NOAEL (no observed adverse effect level), ketamine/xylazine test” value is 1 mg/kg PO.

By IC50 is commonly meant the concentration that gives 50% inhibition.
